In PubChem BioAssay AID330 (DTP/NCI, 2004):
Where “and” joins values, the source holds several entries; their conditions need not be identical. Equal values may be shown once. Toxic doses and inconclusive results are not listed. How the source made its calls: active means survival T/C of 150% or more; inactive means T/C below 125% in these data. Bridge positions count the residues as written; N and C are the ends. Peptide text beside a SMILES is read from it. I, II: the chains in the order shown. * marks the point of attachment. Cbz = O=C(OCc1ccccc1)*

Tested on: P388 leukemia ip, CD2F1 mice, survival T/C
Assay: NCI In Vivo Anticancer Drug Screen. Data for tumor model P388 Leukemia (intraperitoneal) in CD2F1 (CDF1) mice
Settings: endpoint: median survival time, higher = longer survival
Procedure, shortened: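 Mice carrying the transplanted tumor received test compound or vehicle. Survival was recorded in each group, and the value is the treated-group measurement divided by that of the vehicle-treated control group.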

[1] = dose: 50.0 mg/kg/injection, schedule: Q01DX005 (ip), vehicle: Klucel (hydroxypropylcellulose) (HPC)
[2] = dose: 12.5 mg/kg/injection, schedule: Q01DX009 (ip), vehicle: saline with Tween-80
[3] = dose: 12.5 mg/kg/injection, schedule: Q01DX005 (ip), vehicle: Klucel (hydroxypropylcellulose) (HPC)
[4] = dose: 25.0 mg/kg/injection, schedule: Q01DX005 (ip), vehicle: Klucel (hydroxypropylcellulose) (HPC)
[5] = dose: 60.0 mg/kg/injection, schedule: Q01DX005 (ip), vehicle: saline with Tween-80
[6] = dose: 120.0 mg/kg/injection, schedule: Q01DX005 (ip), vehicle: saline with Tween-80
[7] = dose: 240.0 mg/kg/injection, schedule: Q01DX005 (ip), vehicle: saline with Tween-80
[8] = dose: 100.0 mg/kg/injection, schedule: Q01DX009 (ip), vehicle: saline with Tween-80
[9] = dose: 200.0 mg/kg/injection, schedule: Q01DX009 (ip), vehicle: saline with Tween-80

Measured: T/C

CC(C)N1CCN(c2ccc(OCC3COC(Cn4cncn4)(c4ccc(Cl)cc4Cl)O3)cc2)CC1 (stereo not drawn)
inactive: [1] 100 % of control | dose: 100.0 mg/kg/injection, schedule: Q01DX005 (ip), vehicle: Klucel (hydroxypropylcellulose) (HPC) 101 % of control

c1ccc(N=C2CCCCC2)cc1
inactive: dose: 100.0 mg/kg/injection, schedule: Q01DX001 (ip), vehicle: other 98 % of control | dose: 200.0 mg/kg/injection, schedule: Q01DX001 (ip), vehicle: other 97 % of control | dose: 400.0 mg/kg/injection, schedule: Q01DX001 (ip), vehicle: other 106 % of control | dose: 600.0 mg/kg/injection, schedule: Q01DX001 (ip), vehicle: other 101 % of control

CC1(C)O[C@@H]2C[C@H]3[C@@H]4CCC5=CC(=O)C=C[C@]5(C)[C@@]4(F)[C@@H](O)C[C@]3(C)[C@]2(C(=O)CO)O1
inactive: [2] 109 % of control | dose: 25.0 mg/kg/injection, schedule: Q01DX009 (ip), vehicle: saline with Tween-80 109 % of control

C/C=C/C[P+](Cc1ccccc1)(c1ccccc1)c1ccccc1
inactive: dose: 0.78 mg/kg/injection, schedule: Q01DX009 (ip), vehicle: saline 105 % of control | dose: 1.56 mg/kg/injection, schedule: Q01DX009 (ip), vehicle: saline 113 % of control | dose: 3.13 mg/kg/injection, schedule: Q01DX009 (ip), vehicle: saline 107 % of control

C=CCOC1CC(C)(O)Cc2cc3c(c(O)c21)C(=O)c1c(O)cc2c(c1C3=O)OC1OC2(C)C(O)C(N(C)C)C1O (stereo not drawn)
inactive: dose: 1.25 mg/kg/injection, schedule: Q01DX009 (ip), vehicle: other 114 % of control | dose: 2.5 mg/kg/injection, schedule: Q01DX009 (ip), vehicle: other 120 % of control | dose: 10.0 mg/kg/injection, schedule: Q01DX009 (ip), vehicle: other 123 % of control

CC1NC(=O)C(NC(=O)OCc2ccccc2)COC(=O)C(C(C)C)NC(=O)C2CSSCC(NC1=O)C(=O)NC(C(C)C)C(=O)OCC(NC(=O)OCc1ccccc1)C(=O)NC(C)C(=O)N2 (stereo not drawn) (I: Cbz-SACV / II: Cbz-SACV; ester I:1-II:C, I:C-II:1; disulfide I:3-II:3; configuration not given here)
inactive: dose: 1.25 mg/kg/injection, schedule: Q01DX005 (ip), vehicle: Klucel (hydroxypropylcellulose) (HPC) 101 % of control | dose: 2.5 mg/kg/injection, schedule: Q01DX005 (ip), vehicle: Klucel (hydroxypropylcellulose) (HPC) 101 % of control | dose: 5.0 mg/kg/injection, schedule: Q01DX005 (ip), vehicle: Klucel (hydroxypropylcellulose) (HPC) 99 % of control | dose: 10.0 mg/kg/injection, schedule: Q01DX005 (ip), vehicle: Klucel (hydroxypropylcellulose) (HPC) 96 % of control | [3] 96 % of control | [4] 96 % of control | [1] 99 % of control

Cc1nc2ccccc2nc1N
inactive: [5] 94 % of control | [6] 98 % of control | [7] 98 % of control

CN1CCN(C)B1N=S=NB1N(C)CCN1C
inactive: dose: 12.5 mg/kg/injection, schedule: Q01DX005 (ip), vehicle: olive oil, sesame oil, peanut oil 100 % of control and 105 % of control | dose: 25.0 mg/kg/injection, schedule: Q01DX005 (ip), vehicle: olive oil, sesame oil, peanut oil 105 % of control and 96 % of control | dose: 50.0 mg/kg/injection, schedule: Q01DX005 (ip), vehicle: olive oil, sesame oil, peanut oil 104 % of control and 97 % of control | dose: 100.0 mg/kg/injection, schedule: Q01DX005 (ip), vehicle: olive oil, sesame oil, peanut oil 102 % of control and 103 % of control

Nc1ncnc2ccc(Cl)cc12
inactive: dose: 50.0 mg/kg/injection, schedule: Q01DX009 (ip), vehicle: saline with Tween-80 105 % of control | [8] 100 % of control | [9] 107 % of control

COCC1(C)CCCC2(C)C1CCC13CCC(O)CC12O3 (stereo not drawn)
inactive: dose: 100.0 mg/kg/injection, schedule: Q01DX001 (ip), vehicle: saline 105 % of control | dose: 200.0 mg/kg/injection, schedule: Q01DX001 (ip), vehicle: saline 105 % of control | dose: 400.0 mg/kg/injection, schedule: Q01DX001 (ip), vehicle: saline 103 % of control

O=C1NC(c2ccccc2)N=C2Oc3ccccc3C=C12 (stereo not drawn)
inactive: dose: 3.12 mg/kg/injection, schedule: Q01DX009 (ip), vehicle: saline 97 % of control | dose: 6.25 mg/kg/injection, schedule: Q01DX009 (ip), vehicle: saline 97 % of control | [2] 115 % of control | dose: 12.5 mg/kg/injection, schedule: Q01DX009 (ip), vehicle: saline 106 % of control

COc1ccc(N=C(C)C2C(=O)c3ccccc3C2=O)cc1
inactive: dose: 50.0 mg/kg/injection, schedule: Q01DX005 (ip), vehicle: DMSO 100 % of control | dose: 50.0 mg/kg/injection, schedule: Q01DX005 (ip), vehicle: saline with Tween-80 113 % of control | dose: 100.0 mg/kg/injection, schedule: Q01DX005 (ip), vehicle: DMSO 102 % of control | dose: 100.0 mg/kg/injection, schedule: Q01DX005 (ip), vehicle: saline with Tween-80 104 % of control | dose: 200.0 mg/kg/injection, schedule: Q01DX005 (ip), vehicle: DMSO 102 % of control | dose: 200.0 mg/kg/injection, schedule: Q01DX005 (ip), vehicle: saline with Tween-80 95 % of control | dose: 400.0 mg/kg/injection, schedule: Q01DX005 (ip), vehicle: DMSO 117 % of control | dose: 800.0 mg/kg/injection, schedule: Q01DX005 (ip), vehicle: DMSO 99 % of control

Cc1cc(O)ccc1O
inactive: dose: 100.0 mg/kg/injection, schedule: Q01DX009 (ip), vehicle: saline 100 % of control and 116 % of control | dose: 200.0 mg/kg/injection, schedule: Q01DX009 (ip), vehicle: saline 112 % of control and 117 % of control

Nc1c(O)c(S(=O)(=O)O)c(O)c2c1C(=O)c1ccccc1C2=O
inactive: [5] 100 % of control | [6] 98 % of control

CCN=C(N)N/N=C(\C)c1ccc2c(c1)Cc1cc(/C(C)=N/NC(N)=NCC)ccc1-2
inactive: dose: 0.39 mg/kg/injection, schedule: Q04DX002 (ip), vehicle: saline with Tween-80 100 % of control | dose: 0.39 mg/kg/injection, schedule: Q04DX002 (ip), vehicle: saline 98 % of control | dose: 0.78 mg/kg/injection, schedule: Q04DX002 (ip), vehicle: saline with Tween-80 94 % of control | dose: 0.78 mg/kg/injection, schedule: Q04DX002 (ip), vehicle: saline 93 % of control | dose: 1.56 mg/kg/injection, schedule: Q04DX002 (ip), vehicle: saline with Tween-80 103 % of control | dose: 1.56 mg/kg/injection, schedule: Q04DX002 (ip), vehicle: saline 102 % of control | dose: 3.12 mg/kg/injection, schedule: Q04DX002 (ip), vehicle: saline with Tween-80 101 % of control | dose: 3.12 mg/kg/injection, schedule: Q04DX002 (ip), vehicle: saline 104 % of control | dose: 6.25 mg/kg/injection, schedule: Q04DX002 (ip), vehicle: saline with Tween-80 102 % of control | dose: 6.25 mg/kg/injection, schedule: Q04DX002 (ip), vehicle: saline 105 % of control | dose: 12.5 mg/kg/injection, schedule: Q04DX002 (ip), vehicle: saline 105 % of control | dose: 25.0 mg/kg/injection, schedule: Q04DX002 (ip), vehicle: saline 102 % of control

CCN(CC)CCNc1cc2c(c3sc4ccccc4c(=O)c13)CCCC2
inactive: dose: 7.8 mg/kg/injection, schedule: Q01DX005 (ip), vehicle: other 113 % of control | dose: 15.6 mg/kg/injection, schedule: Q01DX005 (ip), vehicle: other 110 % of control | dose: 31.3 mg/kg/injection, schedule: Q01DX005 (ip), vehicle: other 113 % of control | dose: 62.5 mg/kg/injection, schedule: Q01DX005 (ip), vehicle: other 101 % of control | dose: 125.0 mg/kg/injection, schedule: Q01DX005 (ip), vehicle: other 104 % of control

Cc1cc(N/N=C/c2ccnc3ccccc23)c2cc3c(cc2n1)OCO3
inactive: [3] 90 % of control and 93 % of control | [4] 100 % of control and 105 % of control | [1] 103 % of control and 108 % of control

Nc1nc(N)c2cc([N+](=O)[O-])ccc2n1
inactive: [5] 93 % of control | [6] 94 % of control | [7] 96 % of control

Cc1ccc(CN(S(=O)(=O)c2ccc(C)cc2)S(=O)(=O)c2ccc(C)cc2)cc1
inactive: [8] 88 % of control | [9] 113 % of control

CCOC1CC(=O)C2(C)C3CCC4(C)C(C(C)C5CC(C)=C(CO)C(=O)O5)CCC4C3CC3OC32C1O (stereo not drawn)
inactive: dose: 12.67 mg/kg/injection, schedule: Q01DX009 (ip), vehicle: saline + alcohol 101 % of control | dose: 25.35 mg/kg/injection, schedule: Q01DX009 (ip), vehicle: saline + alcohol 104 % of control | dose: 50.7 mg/kg/injection, schedule: Q01DX009 (ip), vehicle: saline + alcohol 92 % of control
